# Patent US12440489B2 (priority 2016, dated 2025)
# Experiments:
# [1] = system: TH (tyrosine hydroxylase); experiment: CNS phosphoprotein profile, tyrosine hydroxylase phosphorylation at Ser40 in nucleus accumbens; format: in vivo, mice; details: mouse nucleus accumbens; for increase in TH phosphorylation: haloperidol 2 mg/kg, risperidone dose not given; for effect on tyrosine hydroxylase phosphorylation at Ser40 (in words): 3 mg/kg, 30 minutes or 60 minutes
# Procedure: (§1) A comprehensive molecular phosphorylation study is also carried out to examine the central nervous system (CNS) profile of the compounds of Example 1 and Example 3. The extent of protein phosphorylation for selected key central nervous system proteins is measured in mice nucleus accumbens.
# (§2) Mice were killed 30 minutes to 2 hours post-injection by focused microwave cranial irradiation, which preserves brain phosphoprotein as it exists at the time of death. Nucleus accumbens was then dissected from each mouse brain, sliced and frozen in liquid nitrogen. Samples were further prepared for phosphoprotein analysis via SDS-PAGE electrophoresis followed by phosphoprotein-specific immunoblotting, as described in Zhu H, et al., Brain Res. 2010 Jun 25; 1342:11-23. Phosphorylation at each site was quantified, normalized to total levels of the protein (non-phosphorylated), and expressed as percent of the level of phosphorylation in vehicle-treated control mice.
# [2] = system: Mice; experiment: Mouse marble-burying study (OCD model); format: in vivo; details: for Marbles Buried: of 15 marbles, 30 min
# Description: The marble burying test is used to measure repetitive and anxiety-related behavior in rodents. It is based on the observation that rats and mice will bury either harmful or harmless objects in their bedding, and it has been used as an animal model to measure the effect of pharmacological interventions in treatment of repetitive behavior disorders, such as OCD.
# MPEP is a selective mGluR5 glutamate receptor antagonist. […] Mice in groups (1) are orally administered the vehicle, and mice in group (4) are given an intraperitoneal injection of MPEP just prior to the start of the test.
# The test is conducted in rectangular cages with 4-5 cm of wood chip bedding in a room with the window shades lowered and the door closed to minimize distractions. Fifteen clean marbles are evenly spaced on top of the bedding in three rows of five marbles. One mouse is placed in each cage. The mouse and cage is left undisturbed for 30 minutes. At the end of the test, the mouse is removed and the number of marbles buried to at least ⅔ of their depth is counted.
# [3] = target: Mu opiate receptor (Homo sapiens, UniProt P35372); format: binding
# Chain of Mu opiate receptor (P35372 whole entry): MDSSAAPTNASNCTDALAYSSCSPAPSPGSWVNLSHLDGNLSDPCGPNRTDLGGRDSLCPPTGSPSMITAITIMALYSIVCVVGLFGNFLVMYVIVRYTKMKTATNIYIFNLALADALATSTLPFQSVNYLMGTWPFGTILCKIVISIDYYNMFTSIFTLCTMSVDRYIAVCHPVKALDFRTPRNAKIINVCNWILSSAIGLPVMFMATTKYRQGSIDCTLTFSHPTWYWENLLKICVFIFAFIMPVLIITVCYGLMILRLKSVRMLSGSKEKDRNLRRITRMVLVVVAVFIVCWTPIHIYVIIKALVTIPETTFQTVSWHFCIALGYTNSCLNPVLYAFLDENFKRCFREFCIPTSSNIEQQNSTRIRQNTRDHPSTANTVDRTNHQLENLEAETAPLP
# [4] = system: 5-HT2 receptor; parameters: species or system mice; details: mouse, in vivo; for block of DOI head twitch (in words): po
# [5] = system: ERK2; experiment: CNS phosphoprotein profile, ERK2 phosphorylation at Thr183 and Tyr185 in nucleus accumbens; format: in vivo, mice; details: 3 mg/kg; mouse nucleus accumbens
# Procedure: as §1, §2
# [6] = system: GluR1; experiment: CNS phosphoprotein profile, GluR1 phosphorylation at Ser845 in nucleus accumbens; format: in vivo, mice; details: 3 mg/kg; mouse nucleus accumbens
# Procedure: as §1, §2
# [7] = system: NR2B; experiment: CNS phosphoprotein profile, NR2B phosphorylation at Tyr1472 in nucleus accumbens; format: in vivo, mice; details: 3 mg/kg; 30-60 minutes; mouse nucleus accumbens
# Procedure: as §1, §2
smiles,measurement,setting,value
"Cc1nc2n(c(=O)c1CCN1CCC(c3noc4cc(F)ccc34)CC1)CCCC2 [risperidone, reference compound]",increase in TH phosphorylation,[1],greater than 500%
"O=C(CCCN1CCC(O)(c2ccc(Cl)cc2)CC1)c1ccc(F)cc1 [haloperidol, reference compound]",increase in TH phosphorylation,[1],greater than 400%
"Cc1cccc(C#Cc2ccccc2)n1 [MPEP, 2-methyl-6-(phenylethynyl)pyridine, reference compound]",Marbles Buried,[2]; 20 mg/kg intraperitoneal just prior to the test,0.2
"CN1CCN2c3c(cccc31)[C@@H]1CN(CCCC(=O)c3ccc(F)cc3)CC[C@@H]12 [Formula A, reference compound]",activity at the Mu opiate receptor (in words),[3],not active
"CN1CCN2c3c(cccc31)[C@@H]1CN(CCCC(O)c3ccc(F)cc3)CC[C@@H]12 (stereo partly shown) [Formula B, reference compound]",EC50 for reducing DOI-induced head twitches,[4],"0.31 mg/kg, p.o."
"O=C1CN2c3c(cccc3[C@@H]3CN(CCCOc4ccc(F)cc4)CC[C@@H]32)N1 [Example 3, (6bR,10aS)-8-(3-(4-Fluorophenoxy)Propyl)-6b,7,8,9,10,10a-Hexahydro-1H-Pyrido[3′,4′:4,5]Pyrrolo[1,2,3-De]Quinoxalin-2(3H)-One]",Marbles Buried,[2]; 0.3 mg/kg orally 30 minutes prior to the test,9.3
same,decrease in marble burying compared to the control (in words),"[2]; 0.3 mg/kg, p <0.01",statistically significant decrease
same,EC50 for reducing DOI-induced head twitches,[4],"0.44 mg/kg, p.o."
same,block of DOI head twitch (in words),[4],potently block DOI head twitch
same,effect on ERK2 phosphorylation at Thr183 and Tyr185 (in words),[5],slight decrease
same,effect on tyrosine hydroxylase phosphorylation at Ser40 (in words),[1],neither the compound of Example 1 nor of Example 3 has a significant effect
same,effect on GluR1 phosphorylation at Ser845 (in words),[6],slight increase
same,effect on NR2B phosphorylation at Tyr1472 (in words),[7],neither the compound of Example 1 nor of Example 3 has a significant effect
"O=C1CN2c3c(cccc3[C@@H]3CN(CCCC(=O)c4ccc(F)cc4)CC[C@@H]32)N1 [Example 1, 4-((6bR,10aS)-2-Oxo-2,3,6b,9,10,10a-Hexahydro-1H,7H-Pyrido[3′,4′:4,5]Pyrrolo[1,2,3-De]Quinoxalin-8-Yl)-1-(4-Fluoro-Phenyl)-Butan-1-One]",EC50 for reducing DOI-induced head twitches,[4],"0.23 mg/kg, p.o."
same,block of DOI head twitch (in words),[4],potently block DOI head twitch
same,effect on ERK2 phosphorylation at Thr183 and Tyr185 (in words),[5],slight decrease
same,effect on tyrosine hydroxylase phosphorylation at Ser40 (in words),[1],neither the compound of Example 1 nor of Example 3 has a significant effect
same,effect on GluR1 phosphorylation at Ser845 (in words),[6],slight increase
same,effect on NR2B phosphorylation at Tyr1472 (in words),[7],neither the compound of Example 1 nor of Example 3 has a significant effect
